According to the supplement of paper PMC10307832:

Columns and labels:
Test in all cases: relative viability (nuclei count vs DMSO), 5 days (fraction); higher = more cells survive
IPA-3 = compound: C1=CC=C2C(=C1)C=CC(=C2SSC3=C(C=CC4=CC=CC=C43)O)O [IPA-3]
Method in brief: (§1)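 Five library-drug doses spaced by √10 were pinned onto vehicle-anchored 1536-well plates of lung cancer cell lines that had been kept overnight at 37 °C. Cells went 5 days without medium change, then were fixed, permeabilised and Hoechst-stained together, imaged at 4× and counted by MetaXpress. Viability is the ratio of treated-well to vehicle-well nuclei, taken as a median over plates. Plates required control CV below 25% and at least one doubling.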

Doramapimod = compound: Cc1ccc(-n2nc(C(C)(C)C)cc2NC(=O)Nc2ccc(OCCN3CCOCC3)c3ccccc23)cc1 [Doramapimod]
Method in brief: as §1

RAF265 = compound: Cn1c(Nc2ccc(C(F)(F)F)cc2)nc2cc(Oc3ccnc(-c4ncc(C(F)(F)F)[nH]4)c3)ccc21 [RAF265]
Method in brief: as §1

Row | Cell Line | relative viability (IPA-3; 0.2 µM) | relative viability (IPA-3; 0.6325 µM) | relative viability (IPA-3; 2 µM) | relative viability (IPA-3; 6.325 µM) | relative viability (IPA-3; 20 µM) | relative viability (Doramapimod; 0.02 µM) | relative viability (Doramapimod; 0.06325 µM) | relative viability (Doramapimod; 0.2 µM) | relative viability (Doramapimod; 0.6325 µM) | relative viability (Doramapimod; 2 µM) | relative viability (RAF265; 0.01 µM) | relative viability (RAF265; 0.03162 µM) | relative viability (RAF265; 0.1 µM) | relative viability (RAF265; 0.3162 µM) | relative viability (RAF265; 1 µM)
1 | NCI-H520 | 1.07 | 0.888 | 0.916 | 1.03 | 0.929 | 0.943 | 0.933 | 0.941 | 0.88 | 0.868 | 1.11 | 0.869 | 1.03 | 1.02 | 0.614
2 | NCI-H522 | 1.05 | 0.889 | 0.978 | 1.07 | 1.08 | 0.946 | 0.978 | 0.79 | 0.925 | 0.86 | 1.15 | 1.1 | 0.941 | 0.812 | 0.961
3 | NCI-H596 | 0.934 | 0.989 | 0.977 | 1.13 | 1.2 | 1.02 | 1.12 | 0.957 | 0.92 | 0.984 | 1.28 | 0.987 | 1.07 | 1.03 | 0.829
4 | NCI-H647 | 1.27 | 0.906 | 0.88 | 0.758 | 0.568 | 1.05 | 1.03 | 1.07 | 0.995 | 0.913 | 0.931 | 0.974 | 0.886 | 0.645 | 0.505
5 | NCI-H650 | 1.2 | 0.977 | 0.861 | 1.03 | 1.12 | 0.965 | 1.02 | 1.11 | 0.901 | 0.913 | 1.07 | 0.845 | 0.969 | 0.615 | 0.51
6 | NCI-H661 | 1.09 | 0.951 | 0.984 | 1 | 1.01 | 0.978 | 1.02 | 0.995 | 1.06 | 0.915 | 1.01 | 0.962 | 0.774 | 0.643 | 0.57
7 | NCI-H727 | 0.929 | 0.938 | 0.816 | 0.901 | 0.899 | 0.971 | 0.972 | 1.05 | 0.885 | 0.787 | 0.932 | 0.908 | 0.834 | 0.7 | 0.62
8 | NCI-H838 | 1.08 | 0.942 | 0.972 | 0.969 | 1.1 | 0.993 | 1.02 | 1.06 | 1.05 | 0.949 | 0.981 | 1 | 0.973 | 0.93 | 0.773
9 | NCI-H1299 | 1.1 | 0.995 | 1.02 | 0.94 | 0.98 | 1.04 | 1.02 | 1.02 | 1.05 | 0.967 | 1.08 | 0.97 | 0.961 | 0.793 | 0.616
10 | NCI-H1355 | 1.11 | 0.98 | 0.988 | 0.965 | 0.98 | 1.02 | 0.984 | 0.939 | 1.03 | 0.86 | 1 | 0.943 | 0.895 | 0.72 | 0.441
11 | NCI-H1395 | 1.04 | 0.947 | 0.879 | 0.918 | 1.04 | 1.01 | 1.18 | 1.07 | 0.94 | 0.831 | 1.03 | 0.866 | 0.899 | 0.774 | 0.689
12 | NCI-H1437 | 1.13 | 1.01 | 0.994 | 1.04 | 1.08 | 1.05 | 1.05 | 0.985 | 1.07 | 0.948 | 1.02 | 0.99 | 1.01 | 1.03 | 0.954
13 | NCI-H1563 | 1.09 | 0.959 | 1.01 | 1.1 | 1.17 | 0.996 | 0.996 | 1.11 | 1.28 | 1.06 | 1.06 | 1.05 | 1.01 | 1.03 | 0.932
14 | NCI-H1623 | 1.07 | 0.943 | 0.971 | 0.951 | 0.993 | 0.986 | 0.982 | 0.944 | 0.775 | 0.88 | 1.06 | 0.945 | 1.09 | 0.456 | 0.798
15 | NCI-H1648 | 1.25 | 0.889 | 1.02 | 0.65 | 0.793 | 0.925 | 1.19 | 0.898 | 0.835 | 0.719 | 0.936 | 0.842 | 0.919 | 0.593 | 0.589
16 | NCI-H1650 | 1.13 | 0.787 | 0.931 | 1.01 | 1 | 0.998 | 0.99 | 1.17 | 1.2 | 0.966 | 1.09 | 0.904 | 1.11 | 0.75 | 0.765
17 | NCI-H1651 | 1.18 | 0.952 | 1.03 | 1.02 | 1.08 | 0.938 | 0.934 | 1.03 | 1.1 | 0.968 | 1 | 1 | 0.961 | 0.901 | 0.785
18 | NCI-H1666 | 1.15 | 0.978 | 1.02 | 1.08 | 1.12 | 1.06 | 1.03 | 1 | 1.11 | 1.01 | 1.07 | 1.01 | 1.01 | 1.01 | 0.795
19 | NCI-H1703 | 1.27 | 0.86 | 1.02 | 0.935 | 1.04 | 0.923 | 0.918 | 0.876 | 1.11 | 0.612 | 0.783 | 0.792 | 0.831 | 0.652 | 0.352
20 | NCI-H1734 | 1.22 | 1 | 0.972 | 0.992 | 0.908 | 0.949 | 0.855 | 0.868 | 1.02 | 0.769 | 1.05 | 0.832 | 0.87 | 0.738 | 0.521
21 | NCI-H1755 | 1.08 | 0.922 | 1.04 | 1.01 | 1.12 | 0.966 | 0.958 | 1.03 | 0.988 | 0.997 | 1.1 | 1.01 | 0.984 | 0.889 | 0.638
22 | NCI-H1792 | 1.32 | 0.794 | 0.952 | 0.809 | 1.08 | 0.954 | 0.869 | 0.971 | 0.913 | 0.715 | 0.893 | 0.73 | 0.648 | 0.246 | 0.249
